From publication PMC8968710, “Structural insights into the substrate-bound condensation domains of non-ribosomal peptide synthetase AmbB” (Scientific Reports, 2022)

Key:
AmbB T–C [1] = molecular target: T1, AmbB T–C (Pseudomonas aeruginosa, UniProt Q9I1H0); experiment: X-ray crystallography, […] Å; LC-MS; assay type: binding; conditions: covalent; on Ser768 of T domain, L-Ala thioester near His953 of C domain; possible Ppant/Ppant-L-Ala mixture
T1 construct: T-C bidomain, residues 727-1249, GST tag cleaved (pGEX-6P-1), E. coli host, holo form made with Sfp; Ppant on Ser768
T1 sequence (Q9I1H0 727-1249): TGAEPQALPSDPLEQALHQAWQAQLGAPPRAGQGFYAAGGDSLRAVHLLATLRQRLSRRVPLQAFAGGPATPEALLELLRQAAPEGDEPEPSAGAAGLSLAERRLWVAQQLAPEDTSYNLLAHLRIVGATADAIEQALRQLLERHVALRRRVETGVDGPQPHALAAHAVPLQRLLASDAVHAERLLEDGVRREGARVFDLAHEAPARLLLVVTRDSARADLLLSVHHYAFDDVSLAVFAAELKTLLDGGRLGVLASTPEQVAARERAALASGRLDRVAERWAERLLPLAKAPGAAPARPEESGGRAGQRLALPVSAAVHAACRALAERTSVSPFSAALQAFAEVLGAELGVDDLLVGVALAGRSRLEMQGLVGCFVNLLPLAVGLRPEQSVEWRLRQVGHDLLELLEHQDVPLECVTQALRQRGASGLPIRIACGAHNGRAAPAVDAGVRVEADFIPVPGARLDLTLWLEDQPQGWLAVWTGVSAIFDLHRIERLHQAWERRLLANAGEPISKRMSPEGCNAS

full-length AmbB = molecular target: T2, full-length AmbB (Pseudomonas aeruginosa, UniProt Q9I1H0); experiment: […]-alanine aminoacylation/TCA precipitation radioassay; colorimetric pyrophosphate adenylation assay; assay type: biochemical; conditions: 5 mM ATP, 5 mM MgCl2; radioassay with labelled compound
T2 construct: full length, cleavable N-terminal SUMO tag (pET28a), NiNTA purified, E. coli host
T2 sequence (Q9I1H0 whole entry): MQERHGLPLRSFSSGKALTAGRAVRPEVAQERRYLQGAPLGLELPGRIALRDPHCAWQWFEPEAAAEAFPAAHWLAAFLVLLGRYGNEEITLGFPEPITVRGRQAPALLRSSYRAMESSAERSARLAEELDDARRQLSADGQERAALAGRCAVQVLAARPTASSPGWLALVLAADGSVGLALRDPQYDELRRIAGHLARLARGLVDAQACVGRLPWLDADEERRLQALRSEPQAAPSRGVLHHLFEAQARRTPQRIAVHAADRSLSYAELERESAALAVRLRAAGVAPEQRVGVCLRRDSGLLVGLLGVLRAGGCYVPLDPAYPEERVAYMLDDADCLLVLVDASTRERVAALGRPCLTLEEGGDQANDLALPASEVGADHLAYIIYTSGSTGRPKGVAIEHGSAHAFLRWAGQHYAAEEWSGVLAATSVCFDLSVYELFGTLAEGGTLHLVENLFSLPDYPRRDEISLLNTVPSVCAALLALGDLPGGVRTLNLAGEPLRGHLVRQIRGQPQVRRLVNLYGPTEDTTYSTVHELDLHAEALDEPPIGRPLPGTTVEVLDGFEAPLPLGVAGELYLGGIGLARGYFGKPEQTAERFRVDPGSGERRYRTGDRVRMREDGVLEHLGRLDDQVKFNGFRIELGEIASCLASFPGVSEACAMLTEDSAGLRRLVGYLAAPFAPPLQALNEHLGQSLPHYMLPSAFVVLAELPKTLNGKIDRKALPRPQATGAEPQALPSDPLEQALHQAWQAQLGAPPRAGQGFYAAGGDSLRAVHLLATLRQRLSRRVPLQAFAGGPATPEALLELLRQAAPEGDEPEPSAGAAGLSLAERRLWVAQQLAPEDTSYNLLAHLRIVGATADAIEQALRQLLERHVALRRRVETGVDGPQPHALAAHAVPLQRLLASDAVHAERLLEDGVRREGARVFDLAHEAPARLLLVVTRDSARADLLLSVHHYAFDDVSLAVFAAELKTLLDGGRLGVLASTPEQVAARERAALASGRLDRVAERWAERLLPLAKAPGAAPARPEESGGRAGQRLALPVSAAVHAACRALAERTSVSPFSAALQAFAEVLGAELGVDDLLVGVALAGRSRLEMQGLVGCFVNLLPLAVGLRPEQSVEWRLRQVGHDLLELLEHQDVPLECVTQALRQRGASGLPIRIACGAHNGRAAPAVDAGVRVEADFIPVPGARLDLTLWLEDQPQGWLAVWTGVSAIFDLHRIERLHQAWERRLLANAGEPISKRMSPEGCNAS

AmbB T–C [2] = molecular target: T1, AmbB T–C; experiment: X-ray crystallography, […] Å; LC-MS; assay type: binding; conditions: covalent; on Ser768 of T domain, arm in donor channel of C domain

Structure (SMILES): C[C@H](N)C(=O)SCCNC(=O)CCNC(=O)[C@H](O)C(C)(C)COP(=O)(O)O [Ppant-L-Ala]
- X-ray crystallography, 2.5 Å; LC-MS (AmbB T–C [1]): chains B and D exhibit relatively well-defined electron density for Ppant-L-Ala

Structure (SMILES): C[C@H](N)C(=O)O [L-Ala]
- 14C-alanine aminoacylation/TCA precipitation radioassay; colorimetric pyrophosph (full-length AmbB): apo full-length AmbB, which activates L-Ala (Supplementary Fig. S4a)

Structure (SMILES): CC(C)(COP(=O)(O)O)[C@@H](O)C(=O)NCCC(=O)NCCS [Ppant]
- X-ray crystallography, 2.2 Å; LC-MS (AmbB T–C [2]): Structure of holo AmbB T–C with Ppant (cyan stick) covalently attached to Ser768
